Data reported in patent US9018249B2, “SGLT inhibitors” (Panacea Biotec Limited, priority 2011, dated 2015).

What was measured:
human SGLT-1 = target: T1, human SGLT-1 (Homo sapiens, UniProt P13866); experiment: Methyl-α-D-[U-14C]glucopyranoside uptake assay for SGLT-1 in CHO-K1 cells; assay type: cell-based; details: CHO-K1 cells expressing hSGLT-1; for inhibition at 1 µM / inhibition at 10 µM / inhibition at 0.1 µM: read-out: % inhibition of Methyl-α-D-[U-^14C] Glucopyranoside uptake (CHO-K1 cells) mediated by SGLT-1
T1 construct: Full-length human SGLT-1 cDNA in the pCMV-XL-Neo expression vector was obtained from Origene Corporation; host or cells: CHO-K1 cells (American Type Culture Collection), stably transfected, G418-selected
T1 sequence (P13866 1-664): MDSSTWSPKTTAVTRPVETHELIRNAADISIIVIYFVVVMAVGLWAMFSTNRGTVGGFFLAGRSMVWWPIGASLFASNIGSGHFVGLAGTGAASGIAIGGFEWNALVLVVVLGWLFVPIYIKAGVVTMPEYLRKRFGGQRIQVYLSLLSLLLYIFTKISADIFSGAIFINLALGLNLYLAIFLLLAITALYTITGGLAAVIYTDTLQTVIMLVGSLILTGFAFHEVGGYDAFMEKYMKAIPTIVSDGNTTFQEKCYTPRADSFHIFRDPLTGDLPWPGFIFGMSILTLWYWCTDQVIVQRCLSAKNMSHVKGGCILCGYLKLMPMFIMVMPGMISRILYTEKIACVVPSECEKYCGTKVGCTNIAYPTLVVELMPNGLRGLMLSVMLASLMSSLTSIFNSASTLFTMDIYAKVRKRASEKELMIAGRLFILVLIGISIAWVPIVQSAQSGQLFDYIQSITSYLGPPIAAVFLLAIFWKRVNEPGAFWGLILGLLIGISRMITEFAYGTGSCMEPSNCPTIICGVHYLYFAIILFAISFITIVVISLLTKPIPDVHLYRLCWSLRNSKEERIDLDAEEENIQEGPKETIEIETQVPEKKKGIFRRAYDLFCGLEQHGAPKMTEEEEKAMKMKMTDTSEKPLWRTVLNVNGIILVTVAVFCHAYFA
Description: Preparation of Human SGLT-1 Expressing Cells
Full-length human SGLT-1 cDNA in the pCMV-XL-Neo expression vector was obtained from Origene Corporation and propagated in Escherichia coli strain DH5α using Luria-Bertani (LB) medium containing ampicillin. […] Stably transfected cells were selected using G418 antibiotic selection pressure.
Methyl-α-D-[U-^14C]Glucopyranoside Uptake Assay for SGLT-1
(§1) Cells expressing hSGLT-1 were seeded on 96-well tissue culture plates (Greiner, Inc.) in RPMI containing 10% FBS and 800 μg/ml G418 (0.8×10^5 cells per well in 200 μL medium) and incubated at 37° C. under 5% carbon dioxide for 24 h prior to the assay. Cells were washed twice with 200 μL of either sodium buffer (140 mM NaCl, 4.7 mM KCl, 2.2 mM CaCl2, 1.2 mM MgCl2, 10 mM Tris/Hepes, pH 7.4) or sodium-free buffer (137 mM N-methyl-glucamine, 4.7 mM KCl, 2.2 mM CaCl2, 1.2 mM MgCl2, 10 mM Tris/Hepes, pH 7.4). Reaction mixture containing test compounds diluted in assay buffer, 1 mM unlabeled Methyl-α-D-glucopyranoside and 1 μCi/well methyl-α-D-[U-^14C]glucopyranoside (American Radiochemicals) was added per well of a 96-well plate and incubated at 37° C. for 1 h. Cells were washed thrice with 200 μL of wash buffer (140 mM NaCl, 4.7 mM KCl, 2.2 mM CaCl2, 1.2 mM MgCl2, 10 mM Tris/Hepes, pH 7.4 containing 500 μM phlorizin) and lysed using 50 μL of 0.25N NaOH. Methyl-α-D[U-^14C]glucopyranoside uptake was quantitated using a Top count scintillation counter (PerkinElmer, Inc.). All the test compounds were assayed in triplicates.

mouse SGLT-2 = target: T2, mouse SGLT-2 (Mus musculus, UniProt Q923I7); experiment: Methyl-α-D-[U-14C]glucopyranoside uptake assay for SGLT-2 in CHO-K1 cells; assay type: cell-based; details: CHO-K1 cells expressing mSGLT-2, read-out: % inhibition of Methyl-α-D-[U-^14C] Glucopyranoside uptake (CHO-K1 cells) mediated by SGLT-2; for inhibition at 0.001 µM: 1 nM; for inhibition at 0.01 µM: 10 nM; for inhibition at 0.1 µM: 100 nM
T2 construct: Full-length mouse SGLT-2 cDNA was amplified from C57BL/6J mouse kidneys and introduced in the pcDNA3.1(+) expression vector; expressed in transfected cells; host or cells: CHO-K1 cells (American Type Culture Collection), stably transfected, G418-selected
T2 sequence (Q923I7 1-670): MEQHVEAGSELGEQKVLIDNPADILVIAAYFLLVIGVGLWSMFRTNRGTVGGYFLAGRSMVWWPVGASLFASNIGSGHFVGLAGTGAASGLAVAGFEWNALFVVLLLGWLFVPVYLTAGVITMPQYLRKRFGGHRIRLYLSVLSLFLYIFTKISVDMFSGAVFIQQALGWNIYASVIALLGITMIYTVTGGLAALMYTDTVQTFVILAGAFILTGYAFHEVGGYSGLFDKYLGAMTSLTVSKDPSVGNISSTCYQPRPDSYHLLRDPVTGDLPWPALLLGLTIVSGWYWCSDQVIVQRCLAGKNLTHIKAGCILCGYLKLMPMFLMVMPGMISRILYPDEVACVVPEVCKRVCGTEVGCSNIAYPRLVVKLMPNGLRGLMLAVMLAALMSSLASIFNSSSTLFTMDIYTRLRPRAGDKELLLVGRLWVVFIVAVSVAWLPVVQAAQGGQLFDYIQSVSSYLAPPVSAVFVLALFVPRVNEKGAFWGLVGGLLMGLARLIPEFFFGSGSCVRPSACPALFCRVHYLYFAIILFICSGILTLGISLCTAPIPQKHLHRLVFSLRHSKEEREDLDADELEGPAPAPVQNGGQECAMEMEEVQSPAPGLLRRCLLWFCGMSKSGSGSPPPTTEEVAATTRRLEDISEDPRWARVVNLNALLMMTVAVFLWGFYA
Description: Preparation of Mouse SGLT-2 Expressing Cells
Full-length mouse SGLT-2 cDNA was amplified from C57BL/6J mouse kidneys and introduced in the pcDNA3.1(+) expression vector (Invitrogen, Inc.) and propagated in Escherichia coli strain DH5α using LuriaBertani (LB) medium containing ampicillin. […] Stably transfected cells were selected using G418 antibiotic selection pressure.
Methyl-α-D-[U-^14C]Glucopyranoside Uptake Assay for SGLT-2
as §1, with “Cells expressing mSGLT-2 were seeded” for “Cells expressing hSGLT-1 were seeded”, “FBS and 400 μg/mL G418 (0.8×10^5” for “FBS and 800 μg/ml G418 (0.8×10^5”, “test compounds at different concentrations diluted in” for “test compounds diluted in”, “assay buffer, 0.1 mM unlabeled” for “assay buffer, 1 mM unlabeled”, “0.25N NaOH. Methyl-α-D-[U-^14C]glucopyranoside uptake was” for “0.25N NaOH. Methyl-α-D[U-^14C]glucopyranoside uptake was”

C57BL/6J mice = experiment: Estimation of urinary glucose in C57BL/6J mice; assay type: in vivo, mouse; details: urine collected over 24 h
Description: Estimation of Urinary Glucose in C57BL/6J Mice
C57BL/6J mice were fasted 4 h before drug treatment. Fasted mice were weighed and randomized into different groups based on their body weight (n=6). At time T0 test compounds and standard compounds suspended in 0.25% CMC or PEG 400 formulation, were administered to respective groups and kept in metabolic cages (6 mice/cage) after dosing. Animals were fed after drug administration and urine was collected over a period of 24 h. Urinary volume was measured and urinary glucose was estimated using Merckotest Glucose Reagent (Merck Specialties Pvt. Ltd., India).

| SMILES | % inhibition of Methyl-α-D-[U-^14C] Glucopyranoside uptake (CHO-K1 cells) mediated by SGLT-1 (human SGLT-1; 100 nM) | inhibition at 1 µM (human SGLT-1) | inhibition at 10 µM (human SGLT-1) | inhibition at 0.001 µM (mouse SGLT-2) | inhibition at 0.01 µM (mouse SGLT-2) | inhibition at 0.1 µM (mouse SGLT-2) | inhibition at 0.1 µM (human SGLT-1; 100 nM) | UGE in mice (in mg/g of feed consumed) at 3 mpk (C57BL/6J mice) |
| --- | --- | --- | --- | --- | --- | --- | --- | --- |
| CON=CCCOc1ccc(Cc2cc(C3O[C@H](OC)[C@@H](O)[C@H](O)[C@H]3O)ccc2Cl)cc1 (stereo partly shown) [Compound 29] | N.E. | 70% | 92.9% | 40.2% | 37.9% | 77.2% |  |  |
| CCON=CCOc1ccc(Cc2cc([C@]34OC[C@](CO)(O3)[C@@H](O)[C@H](O)[C@H]4O)ccc2Cl)cc1 [Compound 11] |  | 53.7% | 68.2% | < 0% | 20.1% | 50.8% | 25.7% | 56.1 mg/g of feed consumed |
| CON=C(C)COc1ccc(Cc2cc(C3O[C@H](OC)[C@@H](O)[C@H](O)[C@H]3O)ccc2Cl)cc1 (stereo partly shown) [Compound 30] |  | 26.4% | 77.9% | 35.6% | 37.3% | 54% | 24% |  |
